“And” between values parts separate entries of the source, which are not always exact repeats. Identical values can stand only once. “Also recorded” adds a separate entry of the source. Like-named read-outs stand apart in the source and are kept apart here.

Data set [1] deals with Ebola virus replicon. The data set can be described thus: microbe, parasite or virus in culture. In kind it is cell-based. As to conditions: Zaire ebolavirus.
The test system of data set [2] is avian influenza virus A/GuangZhou/99 (H9N2). The experiment in a line: organism not typed. It is filed as cell-based.
For data set [3], the system named is 2019-nCoV (2019BetaCoV/Wuhan/WIV04/2019 strain). The data set can be described thus: microbe, parasite or virus in culture. It is filed as cell-based.
Data set [4] in a line: in vitro. As to conditions: Syrian hamster.
The subject of data set [5] is 2019-nCoV, Ebola virus, and avian influenza virus A/GuangZhou/99 (H9N2). The experiment in a line: organism not typed. It is filed as cell-based. Conditions: read-out: EC50 values (level reached).
Data set [6] concerns 2019-nCoV, Ebola virus, avian influenza virus A/GuangZhou/99 (H9N2). In kind it is cell-based.
The subject of data set [7] is 2019-nCoV. Also noted: species or system Syrian hamster. As to conditions: hamster, in vivo.
Data set [8] deals with 2019-nCoV. Set-up: species or system K18-hACE male mice. As to conditions: mouse, in vivo.
Data set [9] deals with A/WSN/33(H1N1) virus. Set-up: species or system BALB/c female mice. As to conditions: mouse, in vivo.
Where [10] appears, read: BSR-T7/5, read-out: Ebola virus EC50 (µM).
[11] abbreviates: MDCK, read-out: A/GuangZhou/99(H9N2) EC50 (µM).
Setting [12] is: Severe acute respiratory syndrome coronavirus 2, Vero C1008, read-out: 2019-nCoV EC50 (µM).
The mark [13] stands for this setting: BSR-T7/5, read-out: concentration at which replication efficiency of Ebola replicon is inhibited by 50%.
[14] abbreviates: unidentified influenza virus, H9N2, MDCK, read-out: concentration at which replication efficiency of avian influenza virus H9N2 is inhibited by 50%.
[15] abbreviates: Severe acute respiratory syndrome coronavirus 2, Vero C1008, 48 h.
Where [16] appears, read: Severe acute respiratory syndrome coronavirus 2, Vero C1008, read-out: concentration at which replication efficiency of 2019-nCoV is inhibited by 50%.

In the case of `O=C(O)c1ccccc1/C=N/Nc1nc(-c2cc(Cl)ccc2Cl)cs1` [Compound 55], the values for the EC50 in data set [1] (setting [10]), in [2] (setting [11]) and in data set [3] (setting [12]) were 5.4 µM, 4.06 µM and 1.02 µM, respectively.
`Cc1sc(N(C)/N=C/c2ccccc2C(=O)O)nc1-c1ccccc1Cl` [Compound 13]: the EC50 in data set [2] (setting [11]) was 8.27 µM; in [3] (setting [12]), more than 100 µM.
Consider `CCC(C)N(/N=C/c1ccccc1C(=O)O)c1nc(-c2ccccc2Cl)cs1` (stereo not drawn) [Compound 5], for which the EC50 was 89 µM in data set [1] (setting [10]), 45.4 µM in data set [2] (setting [11]) and more than 100 µM in [3] (setting [12]).
Turning to `CCCN(/N=C/c1ccccc1C(=O)O)c1nc(-c2ccccc2Cl)cs1` [Compound 3], the EC50 amounted to 5.42 µM in [1] (setting [10]), 2.38 µM in data set [2] (setting [11]) and 2.35 µM in data set [3] (setting [12]).
Turning to `CN(/N=C/c1ccccc1C(=O)O)c1nc(-c2ccccc2Cl)cs1` [Compound 1], the EC50 in data set [1] (BSR-T7/5, 24 h) is 0.018 µM; in [1] (setting [10]) it was 0.018 µM; in [1] (setting [13]), 0.018 µM; in data set [2] (MDCK), 0.021 µM; in data set [2] (setting [11]) it was 0.021 µM; in data set [2] (setting [14]) it was 0.02 µM. Also, the EC50 in data set [5] is approximately 0.01 µM; in data set [3] (setting [15]) it was 0.017 µM; in data set [3] (setting [12]), 0.017 µM; in [3] (setting [16]) it was 0.017 µM. In [4], this compound showed a CC50 of 85.8 µM. Also, in data set [6], the “therapeutic effect in combination with other antiviral drugs” value is given as “better therapeutic effects”. Moreover, the “reduction of viral load in lung tissue” value in [7] is “more than 100 fold”. Moreover, the “viral infection-induced weight loss” value in [7] is recorded as “significantly slowed”. Also, the “weight loss and death caused by viral infection” value in [8] was “did not significantly improve; also recorded: could not significantly improve”.
For `O=C(O)c1ccccc1/C=N/Nc1nc(-c2ccccc2Cl)cs1` [Compound 16], the EC50 is 11.4 µM in [1] (BSR-T7/5, 24 h); 11.4 µM in data set [1] (setting [10]); 15 µM in [1] (setting [13]); 13.2 µM in data set [2] (MDCK); 13.2 µM in data set [2] (setting [11]); 13.2 µM in [2] (setting [14]). Moreover, the EC50 in data set [5] is approximately 0.01 µM; in data set [3] (setting [15]), 1.56 µM; in [3] (setting [12]), 1.56 µM; in [3] (setting [16]) it was 1.55 µM. Further, the “therapeutic effect in combination with other antiviral drugs” value in data set [6] is reported as “better therapeutic effects”. Further, in data set [9], the “mice treated (survival)” value is 50%-100% and 50% and 100%.
With `O=C(O)c1cc(F)ccc1/C=N/Nc1nc(-c2ccccc2Cl)cs1` [Compound 10-1], the figures for the EC50 in data set [1] (setting [10]), in data set [2] (setting [11]) and in data set [3] (setting [12]) were 0.97 µM, 0.33 µM and 0.11 µM, respectively.
The like results for `CC(C)N(/N=C/c1ccccc1C(=O)O)c1nc(-c2ccccc2Cl)cs1` [Compound 4] were, in that order, 5.35 µM, 8.37 µM and 10.2 µM.
The like results for `CN(/N=C/c1ccc(F)cc1C(=O)O)c1nc(-c2ccccc2Cl)cs1` [Compound 10] were, in that order, 0.32 µM, 3.2 µM and 0.1 µM.
For the compound `Cc1ccc(/C=N/N(C)c2nc(-c3ccccc3Cl)cs2)c(C(=O)O)c1` [Compound 9], the EC50 in data set [1] (setting [10]) amounted to 2.26 µM; in [2] (setting [11]), 1.37 µM; in data set [3] (setting [12]), 0.29 µM.
For `Cc1ccc(/C=N/N(C)c2nc(-c3ccccc3)c(C)s2)c(C(=O)O)c1` [Compound 11], the EC50 in [3] (setting [12]) is more than 100 µM.
On to `CN(/N=C/c1ccc(C(F)(F)F)cc1C(=O)O)c1nc(-c2ccccc2Cl)cs1` [Compound 8], for which the EC50 in [1] (setting [10]) is 49 µM; in [2] (setting [11]), more than 100 µM; in data set [3] (setting [12]) it was more than 100 µM.
`CCN(/N=C/c1ccccc1C(=O)O)c1nc(-c2ccccc2Cl)cs1` [Compound 2]: the EC50 is 0.13 µM in [1] (setting [10]), 0.28 µM in [2] (setting [11]) and 0.16 µM in data set [3] (setting [12]).
The like results for `Cc1ccc(/C=N/Nc2nc(-c3ccccc3Cl)cs2)c(C(=O)O)c1` [Compound 9-1] were, in that order, 0.89 µM, 0.33 µM and 0.07 µM.
Regarding `O=C(O)c1cc(C(F)(F)F)ccc1/C=N/Nc1nc(-c2ccccc2Cl)cs1` [Compound 8-1], the EC50 is 1.14 µM in data set [1] (setting [10]), more than 100 µM in [2] (setting [11]) and 5.25 µM in data set [3] (setting [12]).
Regarding `CCCC(C)N(/N=C/c1ccccc1C(=O)O)c1nc(-c2ccccc2Cl)cs1` (stereo not drawn) [Compound 6], the EC50 was 97 µM in data set [1] (setting [10]), 22.2 µM in [2] (setting [11]) and more than 100 µM in data set [3] (setting [12]).
`Cc1sc(N/N=C/c2ccccc2C(=O)O)nc1-c1ccccc1` [Compound 12-1]: the EC50 in data set [3] (setting [12]) is 0.52 µM.
On the same count and under the same terms, for `Cc1sc(N(C)/N=C/c2ccccc2C(=O)O)nc1-c1ccccc1` [Compound 12] the value was 0.35 µM; for `O=C(O)c1cc(F)c(F)cc1/C=N/Nc1nc(-c2ccccc2Cl)cs1` [Compound 23-1], 5.44 µM.
